Laboratory results published in patent US20260262643A1, “HERBICIDAL BENZOXAZINES” (FMC CORPORATION, priority 2022, published 2026).

Experiments:
[1] = tested on: blackgrass; test: Test C postemergence; format: in vivo, Alopecurus myosuroides; conditions: 10 days, 0 to 100 scale (0 no effect, 100 complete control)
Summary of the method: (§1)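 Visual injury score, 0–100 (100 = complete control), taken 10 days after treatment relative to untreated controls. Pre: directed spray onto soil over sown seeds. Post: foliar spray at one- to two-leaf stage, 2–10 cm. Solvent/surfactant formulation; loam–sand soil; greenhouse.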

[2] = tested on: oat, wild; test: Test C preemergence; format: in vivo, Avena fatua
Summary of the method: as §1

[3] = tested on: wheat; test: Test C postemergence; format: in vivo, Triticum aestivum; conditions: 10 days, 0 to 100 scale (0 no effect, 100 complete control)
Summary of the method: as §1

[4] = tested on: sedge, umbrella; test: Test D flooded paddy test; format: in vivo, Cyperus difformis; conditions: 250 g ai/ha, applied to paddy water, visual rating after 13 to 14 days, scale 0 to 100 (0 no effect, 100 complete control)
Summary of the method: (§2)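 Compounds go straight into paddy water over 2-leaf plants in pots flooded to 3 cm. Greenhouse holding lasts 13 to 14 days. Injury is scored by eye against controls from 0 (none) to 100 (complete control).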

[5] = tested on: horseweed; test: Test C postemergence; format: in vivo, Erigeron canadensis; conditions: 10 days, 0 to 100 scale (0 no effect, 100 complete control)
Summary of the method: as §1

[6] = tested on: kochia; test: Test C preemergence; format: in vivo, Bassia scoparia
Summary of the method: as §1

[7] = tested on: kochia; test: Test C postemergence; format: in vivo, Bassia scoparia; conditions: 10 days, 0 to 100 scale (0 no effect, 100 complete control)
Summary of the method: as §1

[8] = tested on: galium; test: Test C postemergence; format: in vivo, Galium aparine; conditions: 10 days, 0 to 100 scale (0 no effect, 100 complete control)
Summary of the method: as §1

[9] = tested on: wheat; test: Test C preemergence; format: in vivo, Triticum aestivum
Summary of the method: as §1

[10] = tested on: pigweed, palmer; test: Test C preemergence; format: in vivo, Amaranthus palmeri
Summary of the method: as §1

[11] = tested on: barnyardgrass; test: Test C postemergence; format: in vivo, Echinochloa crusgalli; conditions: 10 days, 0 to 100 scale (0 no effect, 100 complete control)
Summary of the method: as §1

[12] = tested on: blackgrass; test: Test C preemergence; format: in vivo, Alopecurus myosuroides
Summary of the method: as §1

[13] = tested on: barnyardgrass; test: Test C preemergence; format: in vivo, Echinochloa crusgalli
Summary of the method: as §1

[14] = tested on: rice; test: Test D flooded paddy test; format: in vivo, Oryza sativa; conditions: 250 g ai/ha, applied to paddy water, visual rating after 13 to 14 days, scale 0 to 100 (0 no effect, 100 complete control)
Summary of the method: as §2

[15] = tested on: foxtail, giant; test: Test C preemergence; format: in vivo, Setaria faberi
Text: (§3) Seeds of plant species selected from barnyardgrass (Echinochloa crusgalli), blackgrass (Alopecurus myosuroides), corn (Zea mays), foxtail, giant (giant foxtail, Setaria faberi), green foxtail (Setaria viridis), goosegrass (Eleusine indica), kochia (Bassia scoparia), oat, wild (wild oat, Avena fatua), pigweed, palmer (palmer amaranth, palmer pigweed, Amaranthus palmeri), Pigweed, Redroot (redroot pigweed, Amaranthus retroflexus), ragweed (common ragweed, Ambrosia artemisiifolia), ryegrass, Italian ([…] ryegrass, Lolium multiflorum), soybean (Glycine max), and wheat (Triticum aestivum) were planted into a blend of loam soil and sand and treated preemergence with a directed soil spray using test chemicals formulated in a non-phytotoxic solvent mixture which included a surfactant. At the same time, plants selected from these crops and weed species and also galium (catchweed bedstraw, Galium aparine) and horseweed (Erigeron canadensis) were planted in pots containing the same blend of loam soil and sand and treated with postemergence applications of test chemicals formulated in the same manner. Plants ranged in height from 2 to 10 cm and were in the one- to two-leaf stage for the postemergence treatment. Treated plants and untreated controls were maintained in a greenhouse for 10 days, after which time all treated plants were compared to untreated controls and visually evaluated for injury. Plant response ratings, summarized in Table C, are based on a 0 to 100 scale where 0 is no effect and 100 is complete control. A dash (-) response means no test result.

[16] = tested on: soybean; test: Test C postemergence; format: in vivo, Glycine max; conditions: 10 days, 0 to 100 scale (0 no effect, 100 complete control)
Summary of the method: as §1

[17] = tested on: soybean; test: Test C preemergence; format: in vivo, Glycine max
Summary of the method: as §1

[18] = tested on: pigweed, palmer; test: Test C postemergence; format: in vivo, Amaranthus palmeri; conditions: 10 days, 0 to 100 scale (0 no effect, 100 complete control)
Summary of the method: as §1

[19] = tested on: oat, wild; test: Test C postemergence; format: in vivo, Avena fatua; conditions: 10 days, 0 to 100 scale (0 no effect, 100 complete control)
Summary of the method: as §1

[20] = tested on: barnyardgrass; test: Test D flooded paddy test; format: in vivo, Echinochloa crus-galli; conditions: 250 g ai/ha, applied to paddy water, visual rating after 13 to 14 days, scale 0 to 100 (0 no effect, 100 complete control)
Summary of the method: as §2

[21] = tested on: corn; test: Test C preemergence; format: in vivo, Zea mays
Summary of the method: as §1

[22] = tested on: ryegrass, Italian; test: Test C preemergence; format: in vivo, Lolium multiflorum
Summary of the method: as §1

[23] = tested on: ryegrass, Italian; test: Test C postemergence; format: in vivo, Lolium multiflorum; conditions: 10 days, 0 to 100 scale (0 no effect, 100 complete control)
Summary of the method: as §1

[24] = tested on: ragweed; test: Test C postemergence; format: in vivo, Ambrosia artemisiifolia; conditions: 10 days, 0 to 100 scale (0 no effect, 100 complete control)
Summary of the method: as §1

[25] = tested on: ragweed; test: Test C preemergence; format: in vivo, Ambrosia artemisiifolia
Summary of the method: as §1

[26] = tested on: foxtail, giant; test: Test C postemergence; format: in vivo, Setaria faberi; conditions: 10 days, 0 to 100 scale (0 no effect, 100 complete control)
Text: as §3

[27] = tested on: ducksalad; test: Test D flooded paddy test; format: in vivo, Heteranthera limosa; conditions: 250 g ai/ha, applied to paddy water, visual rating after 13 to 14 days, scale 0 to 100 (0 no effect, 100 complete control)
Summary of the method: as §2

[28] = tested on: corn; test: Test C postemergence; format: in vivo, Zea mays; conditions: 10 days, 0 to 100 scale (0 no effect, 100 complete control)
Summary of the method: as §1

[29] = 500 g ai/ha, preemergence, 0 to 100 scale (0 no effect, 100 complete control)
[30] = Preemergence, 125 g ai/ha, 0 to 100 scale, 0 no effect, 100 complete control

C[C@H]1CN(C(=O)c2cc(-n3cncn3)cc(C(F)(F)F)c2)c2cccc(Cl)c2O1 [Compound 335]
30: Plant response rating, Kochia ([7]; 500 g ai/ha, postemergence) | Plant response rating, Foxtail, Giant [15, 30] | Soybean plant response rating [17, 29] | Plant response rating, Ryegrass, Italian [22, 30] | Plant response rating, Ryegrass, Italian ([23]; 500 g ai/ha, postemergence)
60: Pigweed, Palmer plant response rating [10, 29] | Barnyardgrass plant response rating [13, 29] | Plant response rating, Pigweed, Palmer ([18]; 500 g ai/ha, postemergence)
50: Plant response rating, Galium ([8]; 500 g ai/ha, postemergence) | Plant response rating, Galium ([8]; Postemergence, 125 g ai/ha) | Plant response rating, Foxtail, Giant ([26]; 500 g ai/ha, postemergence)
80: Blackgrass plant response rating [12, 29] | Ryegrass, Italian plant response rating [22, 29]
35: Plant response rating, Sedge, Umbrella (Flood) [4] | Plant response rating, Ducksalad (Flood) [27]
0: Plant response rating, Blackgrass ([1]; Postemergence, 125 g ai/ha) | Plant response rating, Oat, Wild [2, 30] | Plant response rating, Horseweed ([5]; 500 g ai/ha, postemergence) | Plant response rating, Horseweed ([5]; Postemergence, 125 g ai/ha) | Plant response rating, Kochia [6, 30] | Wheat plant response rating [9, 29] | Plant response rating, Wheat [9, 30] | Plant response rating, Pigweed, Palmer [10, 30] | Plant response rating, Rice (Flood) [14] | Plant response rating, Soybean [17, 30] | Plant response rating, Oat, Wild ([19]; 500 g ai/ha, postemergence) | Plant response rating, Oat, Wild ([19]; Postemergence, 125 g ai/ha) | Plant response rating, Barnyardgrass (Flood) [20] | Plant response rating, Corn [21, 30] | Plant response rating, Ragweed ([24]; Postemergence, 125 g ai/ha) | Ragweed plant response rating [25, 29] | Plant response rating, Ragweed [25, 30]
100: Plant response rating, Soybean ([16]; 500 g ai/ha, postemergence)
90: Foxtail, Giant plant response rating [15, 29] | Plant response rating, Soybean ([16]; Postemergence, 125 g ai/ha)
20: Plant response rating, Blackgrass ([1]; 500 g ai/ha, postemergence) | Plant response rating, Wheat ([3]; 500 g ai/ha, postemergence) | Kochia plant response rating [6, 29] | Plant response rating, Barnyardgrass ([11]; 500 g ai/ha, postemergence) | Plant response rating, Blackgrass [12, 30] | Plant response rating, Barnyardgrass [13, 30] | Plant response rating, Ragweed ([24]; 500 g ai/ha, postemergence) | Plant response rating, Foxtail, Giant ([26]; Postemergence, 125 g ai/ha)
10: Oat, Wild plant response rating [2, 29] | Plant response rating, Wheat ([3]; Postemergence, 125 g ai/ha) | Plant response rating, Kochia ([7]; Postemergence, 125 g ai/ha) | Plant response rating, Barnyardgrass ([11]; Postemergence, 125 g ai/ha) | Plant response rating, Pigweed, Palmer ([18]; Postemergence, 125 g ai/ha) | Corn plant response rating [21, 29] | Plant response rating, Ryegrass, Italian ([23]; Postemergence, 125 g ai/ha) | Plant response rating, Corn ([28]; 500 g ai/ha, postemergence) | Plant response rating, Corn ([28]; Postemergence, 125 g ai/ha)
